Data taken from patent US20230365546A1, “5-SUBSTITUTED INDOLE 3-AMIDE DERIVATIVES, PREPARATION METHOD AND USE THEREOF” (ORIGIANT PHARMACEUTICAL CO., LTD, priority 2020, published 2023).

Key:
Experiment in all cases: Kinase Profiler 10 μM panel
[1] = target: PI3 Kinase (p110a(E542K)/p85a)(m) (Mus musculus (Mouse), UniProt P42337, E542K)
Description: (§1) In vitro kinase assays were conducted using Kinase Profiler services provided by Eurofins. The experimental method was as follows: the small molecule compound to be tested (0.001-10 μM), the protein kinase to be tested were incubated with a buffer containing substrate, 10 mM magnesium acetate, and [γ-^33P-ATP], the reaction was started by adding Mg\TPmix, after incubation for a period of time at room temperature, a 3% phosphate solution was added to the buffer to stop the reaction. Subsequently, 10 μL of the reaction mixture was quantitatively pipetted onto P30 filter paper, which was washed three times with 75 mM phosphate solution and then once with methanol. The P30 filter paper was air-dried and scintillation fluid was added for scintillation counting.

BrSK2(h) = BrSK2(h) (Homo sapiens (Human), UniProt Q8IWQ3)
Description: as §1

PDHK4(h) = PDHK4(h) (Homo sapiens (Human), UniProt Q16654)
Description: as §1

CDKL4(h) = CDKL4(h) (Homo sapiens (Human), UniProt Q5MAI5)
Description: as §1

Aurora-A(h) = Aurora-A(h) (Homo sapiens (Human), UniProt O14965)
Description: as §1

LOK(h) = LOK(h) (Homo sapiens (Human), UniProt O94804)
Description: as §1

MKK4(m) = MKK4(m) (Mus musculus (Mouse), UniProt P47809)
Description: as §1

TGFBR1(h) = TGFBR1(h) (Homo sapiens (Human), UniProt P36897)
Description: as §1

TAK1(h) = TAK1(h) (Homo sapiens (Human), UniProt O43318)
Description: as §1

CDK14/cyclinY(h) = CDK14/cyclinY(h) (Homo sapiens (Human), UniProt O94921)
Description: as §1

DYRK1A(h) = DYRK1A(h) (Homo sapiens (Human), UniProt Q13627)
Description: as §1

SGK2(h) = SGK2(h) (Homo sapiens (Human), UniProt Q9HBY8)
Description: as §1

AMPKα1(h) = AMPKα1(h) (Homo sapiens (Human), UniProt Q13131)
Description: as §1

TAO3(h) = TAO3(h) (Homo sapiens (Human), UniProt Q9H2K8)
NEK2(h) = NEK2(h) (Homo sapiens (Human), UniProt P51955)
Description: as §1

Fgr(h) = Fgr(h) (Homo sapiens (Human), UniProt P09769)
Description: as §1

Flt3(h) = Flt3(h) (Homo sapiens (Human), UniProt P36888)
Description: as §1

GSK3α(h) = GSK3α(h) (Homo sapiens (Human), UniProt P49840)
Description: as §1

IRAK4(h) = IRAK4(h) (Homo sapiens (Human), UniProt Q9NWZ3)
Description: as §1

MST1(h) = MST1(h) (Homo sapiens (Human), UniProt Q13043)
Description: as §1

PIP5K1g(h) = PIP5K1g(h) (Homo sapiens (Human), UniProt O60331)
Description: as §1

TTBK1(h) = TTBK1(h) (Homo sapiens (Human), UniProt Q5TCY1)
Description: as §1

BMPR2(h) = BMPR2(h) (Homo sapiens (Human), UniProt Q13873)
Description: as §1

MAPKAP-K3(h) = MAPKAP-K3(h) (Homo sapiens (Human), UniProt Q16644)
Description: as §1

Pim-1(h) = Pim-1(h) (Homo sapiens (Human), UniProt P11309)
Description: as §1

TAO1(h) = TAO1(h) (Homo sapiens (Human), UniProt Q7L7X3)
Description: as §1

SAPK2a(h) = SAPK2a(h) (Homo sapiens (Human), UniProt Q16539)
Description: as §1

LRRK2(h) = LRRK2(h) (Homo sapiens (Human), UniProt Q5S007)
Description: as §1

MKK6(h) = MKK6(h) (Homo sapiens (Human), UniProt P52564)
Description: as §1

CK2α1(h) = CK2α1(h) (Homo sapiens (Human), UniProt P68400)
Description: as §1

NEK1(h) = NEK1(h) (Homo sapiens (Human), UniProt Q96PY6)
Description: as §1

Plk1(h) = Plk1(h) (Homo sapiens (Human), UniProt P53350)
Description: as §1

CK1ϵ(h) = CK1ϵ(h) (Homo sapiens (Human), UniProt P49674)
Description: as §1

CDKL2(h) = CDKL2(h) (Homo sapiens (Human), UniProt Q92772)
Description: as §1

NEK1(h), sequence (Q96PY6 whole entry): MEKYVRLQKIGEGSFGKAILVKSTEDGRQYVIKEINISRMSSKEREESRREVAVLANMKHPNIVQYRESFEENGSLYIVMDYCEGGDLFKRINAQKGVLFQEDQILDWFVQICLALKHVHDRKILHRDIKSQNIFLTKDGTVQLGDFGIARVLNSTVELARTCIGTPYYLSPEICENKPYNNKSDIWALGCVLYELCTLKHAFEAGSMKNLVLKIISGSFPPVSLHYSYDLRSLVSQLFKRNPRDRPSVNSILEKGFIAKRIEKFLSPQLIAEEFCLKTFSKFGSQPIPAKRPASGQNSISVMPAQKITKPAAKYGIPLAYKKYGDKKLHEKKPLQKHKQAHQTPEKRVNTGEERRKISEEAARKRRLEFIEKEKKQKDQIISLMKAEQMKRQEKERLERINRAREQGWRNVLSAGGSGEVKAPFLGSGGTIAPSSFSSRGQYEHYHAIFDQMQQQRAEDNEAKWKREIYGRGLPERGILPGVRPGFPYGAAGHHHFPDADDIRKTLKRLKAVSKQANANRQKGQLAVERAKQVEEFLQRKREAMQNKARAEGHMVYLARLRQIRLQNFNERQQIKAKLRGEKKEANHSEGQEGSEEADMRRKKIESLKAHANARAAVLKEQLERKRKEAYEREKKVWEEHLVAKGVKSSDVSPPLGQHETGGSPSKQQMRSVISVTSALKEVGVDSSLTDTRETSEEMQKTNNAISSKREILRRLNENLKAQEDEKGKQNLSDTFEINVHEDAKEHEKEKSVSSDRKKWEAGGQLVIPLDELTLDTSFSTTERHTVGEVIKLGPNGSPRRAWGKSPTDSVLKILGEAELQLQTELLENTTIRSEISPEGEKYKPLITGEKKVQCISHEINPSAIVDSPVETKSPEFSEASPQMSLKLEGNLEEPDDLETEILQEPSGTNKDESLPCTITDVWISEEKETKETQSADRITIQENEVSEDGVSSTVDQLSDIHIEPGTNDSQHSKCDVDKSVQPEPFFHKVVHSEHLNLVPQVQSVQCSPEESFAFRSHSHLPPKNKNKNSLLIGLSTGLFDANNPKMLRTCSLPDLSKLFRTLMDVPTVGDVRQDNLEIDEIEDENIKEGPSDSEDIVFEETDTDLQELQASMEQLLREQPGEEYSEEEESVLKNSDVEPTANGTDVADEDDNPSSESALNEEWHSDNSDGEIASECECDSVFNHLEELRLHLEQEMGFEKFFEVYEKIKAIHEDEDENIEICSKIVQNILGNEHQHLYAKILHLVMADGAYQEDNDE
CK2α1(h), sequence (P68400 whole entry): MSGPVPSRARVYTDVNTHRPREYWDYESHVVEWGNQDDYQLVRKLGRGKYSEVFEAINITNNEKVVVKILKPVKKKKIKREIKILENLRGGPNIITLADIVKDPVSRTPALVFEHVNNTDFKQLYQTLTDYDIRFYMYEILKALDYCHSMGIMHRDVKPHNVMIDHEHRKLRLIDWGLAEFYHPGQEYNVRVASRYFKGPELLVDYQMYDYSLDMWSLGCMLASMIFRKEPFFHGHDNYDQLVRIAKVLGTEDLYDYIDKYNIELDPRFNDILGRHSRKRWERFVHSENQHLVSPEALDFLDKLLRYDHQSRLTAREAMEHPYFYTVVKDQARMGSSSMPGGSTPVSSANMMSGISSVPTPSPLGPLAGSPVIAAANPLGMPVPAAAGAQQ
MAPKAP-K3(h), sequence (Q16644 whole entry): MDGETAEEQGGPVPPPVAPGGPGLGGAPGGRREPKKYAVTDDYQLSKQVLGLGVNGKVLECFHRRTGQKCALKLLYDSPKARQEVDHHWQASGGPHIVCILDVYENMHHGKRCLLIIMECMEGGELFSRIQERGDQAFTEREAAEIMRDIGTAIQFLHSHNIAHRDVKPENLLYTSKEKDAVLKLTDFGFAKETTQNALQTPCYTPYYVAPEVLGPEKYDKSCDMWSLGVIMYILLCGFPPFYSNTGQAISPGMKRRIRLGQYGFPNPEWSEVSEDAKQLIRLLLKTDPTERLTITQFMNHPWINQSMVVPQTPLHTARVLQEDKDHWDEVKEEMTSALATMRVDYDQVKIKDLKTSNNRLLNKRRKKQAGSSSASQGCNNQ
Aurora-A(h), sequence (O14965 whole entry): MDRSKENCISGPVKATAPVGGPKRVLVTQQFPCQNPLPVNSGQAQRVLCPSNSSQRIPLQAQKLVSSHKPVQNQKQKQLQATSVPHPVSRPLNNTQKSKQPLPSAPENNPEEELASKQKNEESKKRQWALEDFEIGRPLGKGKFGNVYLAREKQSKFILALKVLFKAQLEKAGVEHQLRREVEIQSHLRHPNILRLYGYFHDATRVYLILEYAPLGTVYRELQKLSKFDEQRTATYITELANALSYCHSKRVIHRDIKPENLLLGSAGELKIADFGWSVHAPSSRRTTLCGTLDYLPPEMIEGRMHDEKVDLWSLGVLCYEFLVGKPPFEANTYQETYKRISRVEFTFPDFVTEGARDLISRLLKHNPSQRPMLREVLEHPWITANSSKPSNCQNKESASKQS
Fgr(h), sequence (P09769 whole entry): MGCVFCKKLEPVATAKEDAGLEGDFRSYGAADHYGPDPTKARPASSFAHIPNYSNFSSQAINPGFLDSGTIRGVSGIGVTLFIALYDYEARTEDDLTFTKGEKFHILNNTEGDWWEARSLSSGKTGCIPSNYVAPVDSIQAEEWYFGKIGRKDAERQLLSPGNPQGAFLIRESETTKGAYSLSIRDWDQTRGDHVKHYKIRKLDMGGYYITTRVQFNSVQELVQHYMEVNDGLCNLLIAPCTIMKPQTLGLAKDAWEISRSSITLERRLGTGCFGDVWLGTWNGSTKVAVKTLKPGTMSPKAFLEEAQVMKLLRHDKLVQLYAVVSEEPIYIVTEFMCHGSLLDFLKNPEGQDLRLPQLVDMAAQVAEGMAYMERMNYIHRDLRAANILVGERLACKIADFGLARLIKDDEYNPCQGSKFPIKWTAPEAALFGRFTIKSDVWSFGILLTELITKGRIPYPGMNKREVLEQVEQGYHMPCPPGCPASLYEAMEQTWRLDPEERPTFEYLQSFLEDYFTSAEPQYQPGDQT
LOK(h), sequence (O94804 whole entry): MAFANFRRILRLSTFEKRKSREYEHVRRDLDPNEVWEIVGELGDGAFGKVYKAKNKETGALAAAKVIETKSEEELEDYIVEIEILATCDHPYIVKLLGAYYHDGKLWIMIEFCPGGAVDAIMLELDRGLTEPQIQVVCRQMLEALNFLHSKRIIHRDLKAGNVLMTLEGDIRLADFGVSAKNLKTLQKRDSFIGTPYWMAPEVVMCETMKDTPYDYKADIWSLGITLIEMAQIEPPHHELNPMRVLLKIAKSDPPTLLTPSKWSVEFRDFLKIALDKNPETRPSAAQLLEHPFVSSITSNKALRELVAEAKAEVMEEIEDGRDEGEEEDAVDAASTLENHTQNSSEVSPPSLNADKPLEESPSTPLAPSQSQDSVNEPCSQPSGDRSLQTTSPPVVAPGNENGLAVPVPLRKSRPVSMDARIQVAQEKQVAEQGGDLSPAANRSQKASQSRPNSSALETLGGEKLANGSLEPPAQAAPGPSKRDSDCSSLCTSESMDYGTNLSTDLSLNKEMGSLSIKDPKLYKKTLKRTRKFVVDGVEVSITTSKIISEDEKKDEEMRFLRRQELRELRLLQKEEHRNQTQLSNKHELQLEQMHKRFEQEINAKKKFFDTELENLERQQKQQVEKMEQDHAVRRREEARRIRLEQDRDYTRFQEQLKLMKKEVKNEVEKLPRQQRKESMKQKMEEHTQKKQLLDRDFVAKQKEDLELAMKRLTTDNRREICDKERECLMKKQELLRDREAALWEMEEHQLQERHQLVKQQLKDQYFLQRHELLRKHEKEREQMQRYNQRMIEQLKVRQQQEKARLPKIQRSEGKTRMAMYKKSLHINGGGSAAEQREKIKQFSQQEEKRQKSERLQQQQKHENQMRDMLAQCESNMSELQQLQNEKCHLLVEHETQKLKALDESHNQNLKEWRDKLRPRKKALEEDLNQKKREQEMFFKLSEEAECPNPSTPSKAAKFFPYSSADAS
CK1ϵ(h), sequence (P49674 whole entry): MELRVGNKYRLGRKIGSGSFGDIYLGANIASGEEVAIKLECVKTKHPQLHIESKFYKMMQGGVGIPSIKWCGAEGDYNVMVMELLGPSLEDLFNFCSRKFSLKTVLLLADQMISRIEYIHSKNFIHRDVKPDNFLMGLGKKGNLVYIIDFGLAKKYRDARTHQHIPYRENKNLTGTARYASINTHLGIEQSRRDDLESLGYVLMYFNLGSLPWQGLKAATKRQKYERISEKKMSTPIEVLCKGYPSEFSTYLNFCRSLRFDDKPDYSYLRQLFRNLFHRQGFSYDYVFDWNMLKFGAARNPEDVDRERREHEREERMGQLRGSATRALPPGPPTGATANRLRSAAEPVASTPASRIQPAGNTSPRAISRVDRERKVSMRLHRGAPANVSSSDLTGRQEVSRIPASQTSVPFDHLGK
SAPK2a(h), sequence (Q16539 whole entry): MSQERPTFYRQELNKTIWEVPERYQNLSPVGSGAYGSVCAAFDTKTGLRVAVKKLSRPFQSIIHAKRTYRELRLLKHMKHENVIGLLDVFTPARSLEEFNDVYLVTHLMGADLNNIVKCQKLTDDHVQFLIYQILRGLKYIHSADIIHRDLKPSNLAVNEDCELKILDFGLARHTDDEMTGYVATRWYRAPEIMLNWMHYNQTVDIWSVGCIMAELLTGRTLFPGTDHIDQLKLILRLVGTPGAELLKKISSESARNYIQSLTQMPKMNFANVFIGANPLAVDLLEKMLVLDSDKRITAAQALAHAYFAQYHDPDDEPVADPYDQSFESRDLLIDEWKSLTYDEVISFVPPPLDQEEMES
TAK1(h), sequence (O43318 1-303): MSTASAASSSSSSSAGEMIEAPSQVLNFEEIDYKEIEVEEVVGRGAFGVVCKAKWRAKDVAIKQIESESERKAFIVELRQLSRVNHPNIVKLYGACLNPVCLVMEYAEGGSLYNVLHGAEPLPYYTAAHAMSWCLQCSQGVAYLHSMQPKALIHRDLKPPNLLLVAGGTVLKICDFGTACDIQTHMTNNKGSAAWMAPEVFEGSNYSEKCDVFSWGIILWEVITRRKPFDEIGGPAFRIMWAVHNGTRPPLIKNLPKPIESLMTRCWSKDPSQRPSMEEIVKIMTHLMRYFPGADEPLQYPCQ

C[C@H](NC(=O)c1cn(C)c2ccc(-c3ccn4nc(NC(=O)C5CC5)nc4c3)cc12)c1cccc(F)c1 [Compound 94, (S)-5-(2-(cyclopropanecarboxamido)-[1,2,4]triazolo[1,5-a]pyridin-7-yl)-N-(1-(3-fluorophenyl)ethyl)-1-methyl-1H-indole-3-carboxamide] gave an Inhibition ratio/% [1] of −1%, an Inhibition ratio/% (BrSK2(h)) of −2% and an Inhibition ratio/% (PDHK4(h)) of −18%. For the same compound, the Inhibition ratio/% (CDKL4(h)) was 76%, the Inhibition ratio/% (Aurora-A(h)) was −7% and the Inhibition ratio/% (LOK(h)) was 25%. It also gave an Inhibition ratio/% (MKK4(m)) of 27%, an Inhibition ratio/% (TGFBR1(h)) of −3% and an Inhibition ratio/% (TAK1(h)) of 9%. The Inhibition ratio/% (CDK14/cyclinY(h)) was 55%, the Inhibition ratio/% (DYRK1A(h)) was 2% and the Inhibition ratio/% (SGK2(h)) was −18%. For the same compound, the Inhibition ratio/% (AMPKα1(h)) was 57%, the Inhibition ratio/% (TAO3(h)) was 6% and the Inhibition ratio/% (NEK2(h)) was 24%. It also gave an Inhibition ratio/% (Fgr(h)) of 8%, an Inhibition ratio/% (Flt3(h)) of 27% and an Inhibition ratio/% (GSK3α(h)) of 48%. For the same compound, the Inhibition ratio/% (IRAK4(h)) was −11%, the Inhibition ratio/% (MST1(h)) was 20% and the Inhibition ratio/% (PIP5K1g(h)) was −16%. The Inhibition ratio/% (TTBK1(h)) was 13%, the Inhibition ratio/% (BMPR2(h)) was −6% and the Inhibition ratio/% (MAPKAP-K3(h)) was −12%. The Inhibition ratio/% (Pim-1(h)) was 9%, the Inhibition ratio/% (TAO1(h)) was 50% and the Inhibition ratio/% (SAPK2a(h)) was 17%. It also gave an Inhibition ratio/% (LRRK2(h)) of 10%, an Inhibition ratio/% (MKK6(h)) of 30% and an Inhibition ratio/% (CK2α1(h)) of 58%. It also gave an Inhibition ratio/% (NEK1(h)) of 50%, an Inhibition ratio/% (Plk1(h)) of 26% and an Inhibition ratio/% (CK1ϵ(h)) of 59%. For the same compound, the Inhibition ratio/% (CDKL2(h)) was 62%.

With C[C@H](NC(=O)c1c[nH]c2ccc(-c3ccc4nc(NC(=O)C5CC5)sc4c3)cc12)c1cccc(F)c1 [Compound 34, (S)-5-(2-(cyclopropanecarboxamido)benzo[d]thiazol-6-yl)-N-(1-(3-fluorophenyl)ethyl)-1H-indole-3-carboxamide] the Inhibition ratio [1] was 33%, the Inhibition ratio (BrSK2(h)) was 8% and the Inhibition ratio (PDHK4(h)) was 72%. The Inhibition ratio (CDKL4(h)) was 56%, the Inhibition ratio (Aurora-A(h)) was 37% and the Inhibition ratio (LOK(h)) was 85%. It also gave an Inhibition ratio (MKK4(m)) of 9%, an Inhibition ratio (TGFBR1(h)) of 7% and an Inhibition ratio (TAK1(h)) of 45%. The Inhibition ratio (CDK14/cyclinY(h)) was 47%, the Inhibition ratio (DYRK1A(h)) was 47% and the Inhibition ratio (SGK2(h)) was 2%. It also gave an Inhibition ratio (AMPKα1(h)) of 4%, an Inhibition ratio (TAO3(h)) of 62% and an Inhibition ratio (NEK2(h)) of 21%. It also gave an Inhibition ratio (Fgr(h)) of 42%, an Inhibition ratio (Flt3(h)) of 79% and an Inhibition ratio (GSK3α(h)) of 10%. It also gave an Inhibition ratio (IRAK4(h)) of 15%, an Inhibition ratio (MST1(h)) of 5% and an Inhibition ratio (PIP5K1g(h)) of 18%. For the same compound, the Inhibition ratio (TTBK1(h)) was 4%, the Inhibition ratio (BMPR2(h)) was 30% and the Inhibition ratio (MAPKAP-K3(h)) was −1%. For the same compound, the Inhibition ratio (Pim-1(h)) was 3%, the Inhibition ratio (TAO1(h)) was 24% and the Inhibition ratio (SAPK2a(h)) was 29%. The Inhibition ratio (LRRK2(h)) was 30%, the Inhibition ratio (MKK6(h)) was 7% and the Inhibition ratio (CK2α1(h)) was 7%. The Inhibition ratio (NEK1(h)) was 18%, the Inhibition ratio (Plk1(h)) was 8% and the Inhibition ratio (CK1ϵ(h)) was 35%. For the same compound, the Inhibition ratio (CDKL2(h)) was 68%.
